Assay results from patent US20120165319A1, “INHIBITORS OF INTERLEUKIN-1 BETA CONVERTING ENZYME” (VERTEX PHARMACEUTICALS INCORPORATED, priority 1995, published 2012).
Where two headings read alike, the source gives them in different places.

Legend:
IL-1β, human whole blood = assay: Whole blood assay for IL-1β production; assay type: cell-based; conditions: read-out: Whole human blood IC50
Description: The whole blood assay is a simple method for measuring the production of IL-1b (or other cytokines) and the activity of potential inhibitors. The complexity of this assay system, with its full complement of lymphoid and inflammatory cell types, spectrum of plasma proteins and red blood cells is an ideal in vitro representation of human in vivo physiologic conditions.
Pyrogen-free syringes (˜30 cc) Pyrogen-free sterile vacuum tubes containing lyophilized Na2EDTA (4.5 mg/10 ml tube) Human whole blood sample (˜30-50 cc) 1.5 ml eppendorf tubes Test compound stock solutions (˜25 mM in DMSO or other solvent) Endotoxin-free sodium chloride solution (0.9%) and HBSS Lipopolysaccharide (Sigma; Cat. # L-3012) stock solution at 1 mg/ml in HBSS
IL-1β ELISA Kit (R & D Systems; Cat # DLB50)
TNFα ELISA Kit (R & D Systems; Cat # DTA50)
Whole Blood Assay Experimental Procedure:
Set incubator or water bath at 30° C. Aliquot 0.25 ml of blood into 1.5 ml eppendorf tubes. Note: be sure to invert the whole blood sample tubes after every two aliquots. Differences in replicates may result if the cells sediment and are not uniformly suspended. Use of a positive displacement pipette will also minimize differences between replicate aliquots.
Prepare drug dilutions in sterile pyrogen-free saline by serial dilution. A dilution series which brackets the apparent Ki for a test compound determined in an ICE inhibition assay is generally used for the primary compound screen.
Add 25 μl test compound dilution or vehicle control and gently mix the sample. Then add 5.0 μl LPS solution (250 ng/ml stocked prepared fresh: 5.0 ng/ml final concentration LPS), and mix again. Incubate the tubes at 30° C. in a water bath for 16-18 hr with occasional mixing. Alternatively, the tubes can be placed in a rotator set at 4 rpm for the same incubation period. This assay should be set up in duplicate or triplicate with the following controls: negative control—no LPS; positive control—no test inhibitor; vehicle control—the highest concentration of DMSO or compound solvent used in the experiment. Additional saline is added to all control tubes to normalize volumes for both control and experimental whole blood test samples
After the incubation period, whole blood samples are centrifuged for 10 minutes at ˜2000 rpm in the microfuge, plasma is transferred to a fresh microfuge tube and centrifuged at 1000×g to pellet residual platelets if necessary. Plasma samples may be stored frozen at −70° C. prior to assay for cytokine levels by ELISA.
We have used R & D Systems (614 McKinley Place N.E. Minneapolis, Minn. 55413) Quantikine kits for measurement of IL-1β and TNF-α. The assays are performed according to the manufacturer's directions.
We have observed IL-1β levels of ˜1-5 ng/ml in positive controls among a range of individuals. A 1:200 dilution of plasma for all samples has been sufficient in our experiments for ELISA results to fall on the linear range of the ELISA standard curves. It may be necessary to optimize standard dilutions if you observe differences in the whole blood assay. Nerad, J. L. et al., J. Leukocyte Biol., 52, pp. 687-692 (1992).

ICE = biological target: T1, ICE (Homo sapiens, UniProt P29466); assay: Enzyme assay with UV-visible substrate (visible ICE assay, Succinyl-Tyr-Val-Ala-Asp-pNitroanilide); assay type: biochemical
T1 sequence (P29466 120-297 limits assumed): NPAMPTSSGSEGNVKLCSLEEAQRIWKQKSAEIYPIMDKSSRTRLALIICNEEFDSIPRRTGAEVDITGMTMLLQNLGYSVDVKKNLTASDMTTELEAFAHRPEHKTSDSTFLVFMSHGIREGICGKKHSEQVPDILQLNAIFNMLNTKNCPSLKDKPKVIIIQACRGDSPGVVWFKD
T1 sequence (P29466 317-404 limits assumed): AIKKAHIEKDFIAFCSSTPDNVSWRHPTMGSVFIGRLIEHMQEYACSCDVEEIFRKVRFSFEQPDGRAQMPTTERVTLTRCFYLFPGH
Procedure, shortened: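 ICE preincubated with inhibitor in DMSO for 15 min at room temperature, then Suc-Tyr-Val-Ala-Asp-pNA added. pNA release read at 405-603 nm for 20 min at 37 °C, rate from linear fit in mOD/min. Ki and inhibition mode from fits of rates at varying inhibitor concentrations to standard kinetic equations.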

Compound	IC50 (IL-1β, human whole blood; Homo sapiens, Table 27)	Ki (ICE; Table 27)	also measured
O=C[C@H](CC(=O)O)NC(=O)CN1C(=O)[C@@H](NC(=O)c2nccc3ccccc23)CN(C(=O)Cc2cccnc2)c2ccccc21 [Compound 734]	6 µM	0.009 µM	–
CC(C)(C)OC(=O)C[C@@H](C=NOCCc1ccccc1)NC(=O)[C@@H]1CCCN2C(=O)CC[C@H](NC(=O)c3ccccc3)C(=O)N12 [Compound 307b, [3S(1S,9S)3-(9-Benzoylamino-6,10-dioxo-1,2,3,4,7,8,9,10-octahydro-6H-pyridazino-[1,2-a][1,2]diazapine-1-carboxamido)-amino]-4-oxobutanoic acid t-butyl ester, O-(2-(phenyl)ethyl)oxime]	–	–	IC50 (IL-1β, human whole blood; * = values obtained upon reassay): 14 µM; Ki (ICE; Table 5): 0.165 µM
Cc1cc(C(=O)N[C@H]2CN(C(=O)C(C)C)c3ccccc3N(CC(=O)N[C@H](C=O)CC(=O)O)C2=O)cc(C)c1O [Compound 725]	3 µM	0.0037 µM	–
CC(=O)OCC(=O)N1C[C@H](NC(=O)c2ccccc2)C(=O)N(CC(=O)N[C@H]2CC(=O)OC2OCc2ccccc2)c2ccccc21 (mixture of isomers) [Compound 682, (3S)-2-Oxo-3-benzoylamino-5-(2-acetoxy)acetyl-N-[(2RS,3S)-benzyloxy-5-oxo-tetrahydrofuran-3-yl]-2,3,4,5-tetrahydro-1H-1,5-benzodiazepine-1-acetamide]	–	–	IC50 (IL-1β, human whole blood; Homo sapiens, Table 17): 1.3 µM
COCC(=O)N1C[C@H](NC(=O)c2cc(Cl)c(O)c(Cl)c2)C(=O)N(CC(=O)N[C@H]2CC(=O)OC2OCc2ccccc2)c2ccccc21 (mixture of isomers) [Compound 688a, (3S)-2-Oxo-3-(3,5-dichloro-4-hydroxybenzoyl)amino-5-methoxyacetyl-N-[(2RS,3S)-benzyloxy-5-oxo-tetrahydrofuran-3-yl]-2,3,4,5-tetrahydro-1H-1,5-benzodiazepine-1-acetamide]	–	–	IC50 (IL-1β, human whole blood; Homo sapiens, Table 17): 3 µM
COCC(=O)N1C[C@H](NC(=O)c2cc(C)c(O)c(C)c2)C(=O)N(CC(=O)N[C@H](C=O)CC(=O)O)c2ccc(F)cc21 [Compound 689b-1, (3S)-3-[(3S)-2-Oxo-3-(3,5-dimethyl-4-hydroxybenzoyl)amino-5-methoxyacetyl-2,3,4,5-tetrahydro-7-fluoro-1H-1,5-benzodiazepine-1-acetylamino]-4-oxobutyric acid]	2.7 µM	0.0035 µM	–
CCOC1OC(=O)C[C@@H]1NC(=O)[C@@H]1CCCN2C(=O)CC[C@H](NC(=O)c3nccc4ccccc34)C(=O)N12 (mixture of isomers) [Compound 550q, [1S,9S(2RS,3S)]N-(2-Ethoxy-5-oxotetrahydrofuran-3-yl)-6,10-dioxo-9-(isoquinolin-1-oylamino)-1,2,3,4,7,8,9,10-octahydro-6-H-pyridazino[1,2-a][1,2]diazepine-1-carboxamide]	–	–	IC50 (IL-1β, human whole blood; Table 17): 0.7 µM
CS(=O)(=O)CC(=O)N1C[C@H](NC(=O)c2nccc3ccccc23)C(=O)N(CC(=O)N[C@H](C=O)CC(=O)O)c2ccccc21 [Compound 735]	10 µM	0.006 µM	–
CCOC(=O)N1C[C@H](NC(=O)c2cc(C)c(O)c(C)c2)C(=O)N(CC(=O)N[C@H](C=O)CC(=O)O)c2ccccc21 [Compound 722]	5 µM	0.005 µM	–
Cc1cc(C(=O)N[C@H]2CNc3ccccc3N(CC(=O)N[C@H](C=O)CC(=O)O)C2=O)cc(C)c1O [Compound 727]	2.3 µM	0.05 µM	–
O=C[C@H](CC(=O)O)NC(=O)CN1C(=O)[C@@H](NC(=O)c2nccc3ccccc23)CN(C=O)c2ccccc21 [Compound 698, (3S)-3-[(3S)-2-oxo-3-isoquinolin-1-oylamino-5-formyl-2,3,4,5-tetrahydro-1H-1,5-benzodiazepine-1-acetylamino]-4-oxobutyric acid]	13.5 µM	0.018 µM	–
Cc1cc(C(=O)N[C@H]2CN(C(=O)CO)c3ccccc3N(CC(=O)NC3CC(=O)OC3OCc3ccccc3)C2=O)cc(C)c1O (stereo partly drawn) [Compound 695c, (3S)-2RS-Oxo-3-(3,5-dimethyl-4-hydroxybenzoyl)amino-5-hydroxyacetyl-N-(2-benzyloxy-5-oxo-tetrahydrofuran-3-yl)-2,3,4,5-tetrahydro-1H-1,5-benzodiazepine-1-acetamide]	–	–	IC50 (IL-1β, human whole blood; Table 17): 2.5 µM
CC(=O)N1C[C@H](NC(=O)c2cc(C)c(O)c(C)c2)C(=O)N(CC(=O)N[C@H]2CC(=O)OC2OCc2ccccc2)c2ccccc21 (mixture of isomers) [Compound 670, (3S)-2-Oxo-3-(3,5-dimethyl-4-hydroxybenzoyl)amino-5-acetyl-N-[(2RS,3S)-benzyloxy-5-oxo-tetrahydrofuran-3-yl]-2,3,4,5-tetrahydro-1H-1,5-benzodiazepine-1-acetamide]	–	–	IC50 (IL-1β, human whole blood; Homo sapiens, Table 17): 4.5 µM
O=C[C@H](CC(=O)O)NC(=O)[C@@H]1CCCN2C(=O)CC[C@H](NC(=O)c3cnns3)C(=O)N12 [Compound 446]	–	–	IC50 (IL-1β, human whole blood; Homo sapiens, * = values obtained upon reassay): 3 µM; Ki (ICE; Table 5): 0.062 µM
CCOC(=O)C(=O)N1C[C@H](NC(=O)c2cc(C)c(O)c(C)c2)C(=O)N(CC(=O)N[C@H](C=O)CC(=O)O)c2ccccc21 [Compound 729]	2.8 µM	0.028 µM	–
COc1cc(C(=O)N[C@H]2CN(C(=O)CO)c3ccccc3N(CC(=O)N[C@H](C=O)CC(=O)O)C2=O)cc(OC)c1O [Compound 732]	1.8 µM	0.005 µM	–
COc1cccc(OC)c1C(=O)C(=O)N[C@H]1CN(C(=O)CO)c2ccccc2N(CC(=O)N[C@H]2CC(=O)OC2OCc2ccccc2)C1=O (stereo partly drawn) [Compound 677, (3S)-2-Oxo-3-(1,6-dimethoxybenzoylformyl)amino-5-(2-hydroxy)acetyl-N-[(2RS,3S)-benzyloxy-5-oxo-tetrahydrofuran-3-yl]-2,3,4,5-tetrahydro-1H-1,5-benzodiazepine-1-acetamide]	–	–	IC50 (IL-1β, human whole blood; Homo sapiens, Table 17): 0.61 µM
CN(C)c1cccc(C(=O)N[C@H]2CCC(=O)N3CCC[C@@H](C(=O)N[C@H]4CC(=O)OC4OCc4ccccc4)N3C2=O)c1 (mixture of isomers) [Compound 213g, [1S,9S (2RS,3S)]9-[(3-Dimethylaminobenzoyl)amino]-6,10-dioxo-1,2,3,4,7,8,9,10-octahydro-N-(2-Benzyloxy-5-oxotetrahydrofuran-3-yl)-6H-pyridazino[1,2-a][1,2]diazepine-1-carboxamide]	–	–	IC50 (IL-1β, human whole blood; Table 17): 2.2 µM
Cc1cc(C(=O)N[C@H]2CN(C(=O)CO)c3ccccc3N(CC(=O)N[C@H]3CC(=O)OC3OCc3ccccc3)C2=O)cc(C)c1O (mixture of isomers) [Compound 690a, (3S)-2-Oxo-3-(3,5-dimethyl-4-hydroxybenzoyl)amino-5-hydroxyacetyl-N-[(2RS,3S)-benzyloxy-5-oxo-tetrahydrofuran-3-yl]-2,3,4,5-tetrahydro-1H-1,5-benzodiazepine-1-acetamide]	–	–	IC50 (IL-1β, human whole blood; Homo sapiens, Table 17): 1.6 µM
COCC(=O)N1C[C@H](NC(=O)c2cc(C)c(O)c(C)c2)C(=O)N(CC(=O)N[C@H]2CC(=O)OC2OCc2ccccc2)c2ccccc21 (mixture of isomers) [Compound 688b, (3S)-2-Oxo-3-(3,5-dimethyl-4-hydroxybenzoyl)amino-5-methoxyacetyl-N-[(2RS,3S)-benzyloxy-5-oxo-tetrahydrofuran-3-yl]-2,3,4,5-tetrahydro-1H-1,5-benzodiazepine-1-acetamide]	–	–	IC50 (IL-1β, human whole blood; Homo sapiens, Table 17): 1.3 µM
CCOC1OC(=O)C[C@@H]1NC(=O)CN1C(=O)[C@@H](NC(=O)c2cc(C)c(O)c(C)c2)CN(C(=O)CO)c2ccccc21 (mixture of isomers) [Compound 692b, (3S)-2-Oxo-3-(3,5-dimethyl-4-hydroxybenzoyl)amino-5-hydroxyacetyl-N-[(2RS,3S)-ethoxy-5-oxo-tetrahydrofuran-3-yl]-2,3,4,5-tetrahydro-1H-1,5-benzodiazepine-1-acetamide]	–	–	IC50 (IL-1β, human whole blood; Table 17): 1.8 µM
